Like-named read-outs stand apart in the source and are kept apart here.

In assay [1] the test system is R848-induced TNFα production by human peripheral blood mononuclear cells (PBMCs). In words: R848 Induced TNFα in Human PBMC Assay. The class given is cell-based.
From the text: This protocol is for R848-induced TNFα production by human peripheral blood mononuclear cells (PBMCs). […] The assay is used to assess cell-based potency of small molecule inhibitors of IRAK4 in the absence of serum.
The PBMCs in the interphase layer were collected and washed with PBS via centrifugation multiple times until the supernatant is clear. The purified PBMCs were re-suspended in RPMI (Roswell Park Memorial Institute) media (Sigma-Aldrich).
For the assay, a compound dilution plate containing a top concentration of 4 mM compound in DMSO was serially diluted 4-fold for 11 times. 250 nL of the compound dilution plate was spotted into a 384-well, flat bottom with IId, TC-treated, black with clear bottom, sterile, polystyrene plate (Corning Life Sciences).
10 μL of anti-TNFα antibody labeled with MSD SULFO-TAG at 50 μg/mL was added to each well and allowed to incubate overnight at 4° C. […] The plates were then imaged on an MSD Sector Imager 6000.
For assay [2], the system named is collagen-induced arthritis (hind paw volume). In words: In Vivo Rat Collagen-Induced Arthritis Model. The following applies: Lewis rat. The method, then:
In Vivo Rat Collagen-Induced Arthritis Model.
Efficacy of IRAK4 compounds of the present invention was also evaluated in a rat in vivo model of rheumatoid arthritis (M. Hegen, J. C. Keith, Jr, M. Collins, C. L. Nickerson-Nutter, Ann. Rheum. Dis. 2008, 67, 1505-1515). An exemplary protocol for this in vivo model follows.
Female Lewis rats, approximately 7 weeks old, were immunized with an emulsion of type II collagen (CII) and incomplete Freund's adjuvant (IFA) on day 0 and received a boost of CII/IFA on day 7. Hind paw volume increase was taken by plethysmograph. Animals were randomly enrolled into treatment groups based on the development of disease. Beginning on day 11 post immunization, rats were enrolled into random treatment groups based on an increase in a single hind paw volume compared to day 7 post immunization baseline measurements.
Ten rats were enrolled per treatment group with the exception of the naive control group, which contained two rats. Day 0 was designated as the first treatment day, and paw measurements are taken daily by plethysmograph. The rats were weighed on a daily basis.
IRAK4 inhibitors are efficacious in the Lewis rat model of collagen-induced arthritis.

The target of assay [3] is human IRAK4 FL (Full Length) (Homo sapiens (Human), UniProt Q9NWZ3). In words: IRAK4 Enzymatic DELFIA Assay, Protocol A. The class given is biochemical. The note with it: 0.6 mM ATP.
[4] abbreviates: human PBMC, absence of serum, read-out: R848-induced TNFa PBMC IC50.
The mark [5] stands for this setting: Homo sapiens, PBMC, read-out: R848-induced TNFa PBMC IC50 (nM).

Sequence of human IRAK4 FL (Full Length) (Q9NWZ3 whole entry): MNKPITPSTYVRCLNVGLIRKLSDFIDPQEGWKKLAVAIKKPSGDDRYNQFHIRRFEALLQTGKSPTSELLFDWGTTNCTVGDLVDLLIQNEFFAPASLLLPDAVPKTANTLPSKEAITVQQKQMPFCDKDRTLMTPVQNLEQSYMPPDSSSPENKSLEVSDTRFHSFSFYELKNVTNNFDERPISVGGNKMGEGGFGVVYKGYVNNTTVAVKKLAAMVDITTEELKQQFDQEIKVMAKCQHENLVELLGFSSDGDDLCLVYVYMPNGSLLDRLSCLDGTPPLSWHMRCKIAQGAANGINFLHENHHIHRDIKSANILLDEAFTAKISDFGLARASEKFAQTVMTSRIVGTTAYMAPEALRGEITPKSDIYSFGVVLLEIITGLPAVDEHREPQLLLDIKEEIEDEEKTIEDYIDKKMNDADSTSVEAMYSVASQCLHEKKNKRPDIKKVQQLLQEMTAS

For the compound `COc1cc2c(OC[C@H]3NC(=O)[C@H]4C3[C@H]4CF)nccc2cc1C(N)=O` (stereo in doubt) [Example 303, 1-(((1S,2S,5S,6R)-6-(fluoromethyl)-4-oxo-3-azabicyclo[3.1.0]hexan-2-yl)methoxy)-7-methoxyisoquinoline-6-carboxamide], in assay [1] (setting [4]), the IC50 amounted to 6050 nM.

On to `Cc1ccc(-n2nc(C(C)(C)C)cc2NC(=O)Nc2ccc(OCCN3CCOCC3)c3ccccc23)cc1` [BIRB796, reference compound], for which the “days with significant reduction of hind paw swelling in CIA rats (t-test, p<0.05 vs. vehicle)” value in assay [2] (30 mg/kg PO, QD, positive control (p38 inhibitor)) is given as “Day 1-Day 8”.

For `CC(C)Oc1cc2c(OC[C@@H]3CCC(=O)N3)nccc2cc1C(N)=O` [Example 26, 1-{[(2S)-5-oxopyrrolidin-2-yl]methoxy}-7-(propan-2-yloxy)isoquinoline-6-carboxamide], the “days with significant reduction of hind paw swelling in CIA rats (t-test, p<0.05 vs. vehicle)” value in assay [2] (30 mg/kg PO, BID, therapeutic treatment for 8 days) was “Day 2-Day 8”; in assay [2] (100 mg/kg PO, BID, therapeutic treatment for 8 days), “Day 1-Day 8 (end)”. Besides, the “hind paw swelling in CIA rats” value in assay [2] (10 mg/kg PO, BID) is “transiently significant reduction in hind paw swelling only on Day 5 and Day 6 post treatment”; in assay [2] (therapeutic treatment BID daily for 8 days, t-test p<0.05 vs. vehicle) it was “reduced the hind paw swelling in CIA rats significantly”.

Take `COc1cc2c(OC[C@@H]3C[C@@](F)(CC(F)(F)F)C(=O)N3)cccc2cc1C(N)=O` [Example 240, 5-{[(2S,4R)-4-fluoro-5-oxo-4-(2,2,2-trifluoroethyl)pyrrolidin-2-yl]methoxy}-3-methoxynaphthalene-2-carboxamide]: the midpoint of inhibition in assay [3], the IC50, lay at 2.3 nM.

In turn, `COc1cc2c(OC[C@@H]3C[C@](F)(CC(F)(F)F)C(=O)N3)cccc2cc1C(N)=O` [Example 241, 5-{[(2S,4S)-4-fluoro-5-oxo-4-(2,2,2-trifluoroethyl)pyrrolidin-2-yl]methoxy}-3-methoxynaphthalene-2-carboxamide] returned an IC50 in assay [3] of 161 nM.

Turning to `COc1cc2c(OC[C@H]3C[C@@H](F)C(=O)N3)nccc2cc1C(N)=O` [Example 275, 1-{[(2R,4R)-4-fluoro-5-oxopyrrolidin-2-yl]methoxy}-7-methoxyisoquinoline-6-carboxamide], the IC50 came to 119 nM in assay [3] and 5140 nM in assay [1] (setting [5]).

For the compound `C[C@@H]1[C@H](F)C(=O)N[C@@H]1COc1nccc2cc(C(N)=O)c(OC3CC3)cc12` [Example 281, 7-(cyclopropyloxy)-1-{[(2S,3S,4S)-4-fluoro-3-methyl-5-oxopyrrolidin-2-yl]methoxy}isoquinoline-6-carboxamide], the IC50 in assay [1] (setting [5]) worked out at 127 nM.

For the compound `COc1cc2c(OC[C@H]3NC(=O)[C@@H]4[C@@H](CF)[C@@H]43)nccc2cc1C(N)=O` [Example 304, 1-{[(1R,2S,5S)-6-(fluoromethyl)-4-oxo-3-azabicyclo[3.1.0]hex-2-yl]methoxy}-7-methoxyisoquinoline-6-carboxamide], in assay [1] (setting [4]), the IC50 was found to be 35 nM.

One may read the IC50 as the midpoint of a concentration-inhibition curve.

Values taken from patent US10793579B2, “Bicyclic-fused heteroaryl or aryl compounds” (Pfizer Inc., priority 2014, dated 2020).
